This note sets out measurements from patent US20110015067A1, “Herbicidal Compositions Comprising Pyroxasulfone” (BASF SE, priority 2008, published 2011).

The subject of test [1] is ALOMY (Alopecurus myosuroides). Kind of test: pre-emergence greenhouse test. It counts as in vivo. The note with it: for observed activity in % destruction: pre-emergence. The method, boiled down:
(§1)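 Compounds suspended or emulsified in water and sprayed onto soil directly after sowing, pots then covered until rooting. Herbicides formulated as 10% suspension concentrates or commercial products, alone or mixed with safener. Damage scored 0-100% versus untreated plants at 8 and/or 20 days after treatment.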

Test [2] deals with DIGSA (Digitaria sanguinalis). The experiment in a line: pre-emergence greenhouse test. The class given is in vivo. The note with it: DIGSA pre-emergence 25 g ai/ha. The method, boiled down:
as §1

For `Cn1nc(C(F)(F)F)c(CS(=O)(=O)C2=NOC(C)(C)C2)c1OC(F)F` [pyroxasulfone, 3-[5-(difluoromethoxy)-1-methyl-3-(trifluoromethyl)pyrazol-4-ylmethylsulfonyl]-4,5-dihydro-5,5-dimethyl-1,2-oxazole], the “observed % destruction 20 DAT” value in test [1] (ALOMY pre-emergence 6.25 g ai/ha) amounted to 90%; in test [1] (ALOMY pre-emergence 12.5 g ai/ha) it was 98%; in test [1] (ALOMY pre-emergence 25 g ai/ha), 98%; in test [1] (ALOMY pre-emergence 50 g ai/ha) it was 98%; in test [2], 100%. The “observed % destruction 8 DAT” value in test [1] (ALOMY pre-emergence 50 g ai/ha) turned out to be 85%; in test [2] it was 90%. The “observed activity in % destruction” value in test [1] (12.5 g ai/ha, 8 DAT) was 70%; in test [1] (12.5 g ai/ha, 20 DAT) it was 98%; in test [1] (25 g ai/ha, 8 DAT), 80%; in test [1] (25 g ai/ha, 20 DAT), 98%; in test [1] (50 g ai/ha, 8 DAT), 85%; in test [1] (50 g ai/ha, 20 DAT), 98%.
